Values quoted from earlier work in patent US8470371B2, “Polymeric micellar clusters and their uses in formulating drugs” (priority 2006, dated 2013).

Key:
[1] = drug: propofol; literature
[2] = comparator amphiphiles

CC(C)c1cccc(C(C)C)c1O [Propofol]
Log P: 4.1

C[C@]12C=CC(=O)C=C1CC[C@@H]1[C@@H]2[C@@H](O)C[C@@]2(C)[C@H]1CC[C@]2(O)C(=O)CO [Prednisolone]
Log P: 1.4

2-hydroxypropyl-β-cyclodextrin
Drug Concentration [1]: 38700 µg/mL | Moles drug encapsulated per mole of polymer [1]: 0.75 [10]

polysorbate 20
CMC [2]: 53 µM | HLB [2]: 16.7
